Results as given in patent publication US20040127518A1, “Modulation of anxiety through blockade of anandamide hydrolysis” (priority 2002, published 2004).

Key:
Catalepsy = format: in vivo; conditions: UCM532 10 mg kg-1 i.p.; UCM597 0.3 mg kg-1 i.p.; data not shown
Source text: We dissolved all compounds in saline/Tween 80/polyethylenglycol (90/5/5) and administered them by i.p. injection immediately before tests. We measured body temperature with a rectal probe (Type T, Copper-Costantan Thermocouple-Physitemp Instruments INC, Clifton, N.J.) connected to a digital thermometer (model BAT-12 Physitemp Instruments INC, Clifton, N.J.); and catalepsy using the procedure described in Tseng and Craft (Tseng, A. H. et al., Eur. J. Pharmacol., 430, 41-47 (2001)).

FAAH [1] = biological target: T1, FAAH (Rattus norvegicus, UniProt P97612); experiment: FAAH-catalyzed hydrolysis of [3H]anandamide by intact cortical neurons in primary cultures; format: cell-based; conditions: n=8, read-out: IC50, hydrolysis of exogenous [3H]anandamide
T1 sequence (P97612 1-579): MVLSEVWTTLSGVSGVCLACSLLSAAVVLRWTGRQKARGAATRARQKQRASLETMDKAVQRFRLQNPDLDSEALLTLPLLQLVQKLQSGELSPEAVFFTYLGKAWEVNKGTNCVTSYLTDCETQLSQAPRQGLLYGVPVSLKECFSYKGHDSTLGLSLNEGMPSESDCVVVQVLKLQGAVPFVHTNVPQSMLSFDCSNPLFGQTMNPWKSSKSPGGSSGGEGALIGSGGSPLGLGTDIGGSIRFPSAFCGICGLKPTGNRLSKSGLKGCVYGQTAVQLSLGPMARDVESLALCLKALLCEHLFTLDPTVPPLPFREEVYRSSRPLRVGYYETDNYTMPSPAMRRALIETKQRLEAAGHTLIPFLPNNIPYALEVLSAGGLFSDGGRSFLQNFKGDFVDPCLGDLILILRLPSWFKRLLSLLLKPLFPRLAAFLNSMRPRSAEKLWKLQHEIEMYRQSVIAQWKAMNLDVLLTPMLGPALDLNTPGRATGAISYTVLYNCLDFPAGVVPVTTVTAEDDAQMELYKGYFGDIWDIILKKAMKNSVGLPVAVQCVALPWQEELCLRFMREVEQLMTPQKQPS

Mouse formalin test = format: in vivo; conditions: dose not stated, data not shown
Experimental: We dissolved FAAH inhibitors in polyethyleneglycol/water (1/1) and rimonabant in saline. Formalin and hot-plate assays were carried out in the mouse, as described (Beltramo, M. et al., FEBS Lett., 403, 263-267 (1997)).
The compounds exerted, however, moderate antinociceptive effects in two models of acute pain.

[2] = tested on: panel of 21 receptors, ion channels and neurotransmitter transporters; experiment: Panel of 21 receptors, ion channels and neurotransmitter transporters; format: binding; conditions: 10 μM; data not shown
[3] = biological target: T2, electric eel acetylcholinesterase (Electrophorus electricus, UniProt O42275); experiment: biochemical
T2 sequence (O42275 whole entry): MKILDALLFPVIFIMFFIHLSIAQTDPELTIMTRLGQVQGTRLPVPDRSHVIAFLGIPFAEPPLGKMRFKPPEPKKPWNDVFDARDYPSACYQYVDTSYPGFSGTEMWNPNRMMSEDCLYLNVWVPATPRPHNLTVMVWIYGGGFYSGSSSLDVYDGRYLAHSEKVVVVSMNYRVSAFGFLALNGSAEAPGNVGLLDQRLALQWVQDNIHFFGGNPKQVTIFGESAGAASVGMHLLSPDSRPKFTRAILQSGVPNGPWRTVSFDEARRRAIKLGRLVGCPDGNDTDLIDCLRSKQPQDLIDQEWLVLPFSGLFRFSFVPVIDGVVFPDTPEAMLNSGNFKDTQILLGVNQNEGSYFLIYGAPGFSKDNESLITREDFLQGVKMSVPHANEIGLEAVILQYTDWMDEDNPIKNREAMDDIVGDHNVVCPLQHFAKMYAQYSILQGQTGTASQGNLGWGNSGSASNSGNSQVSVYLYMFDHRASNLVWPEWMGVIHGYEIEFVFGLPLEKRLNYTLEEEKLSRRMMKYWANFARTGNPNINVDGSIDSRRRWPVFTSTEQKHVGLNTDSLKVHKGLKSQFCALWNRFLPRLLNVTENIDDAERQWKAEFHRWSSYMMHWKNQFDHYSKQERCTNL
Source text: (§1) We prepared cell fractions from rat brain homogenates, and assayed membrane FAAH activity and cytosol MGL activity using anandamide [ethanolamine-3H] (American Radiolabeled Chemicals, ARC (St. Louis Mo.), 60 Ci/mmol) and 2-mono-oleoyl-glycerol-[glycerol-1,2,3^−3H] (ARC, St. Louis Mo., 20 Ci/mmol), respectively, as substrates (Dinh, T. Proc. Natl. Acad. Sci. U.S.A. (2002)). We conducted [^3H]anandamide transport assays in human astrocytoma cells (Piomelli, D. et al., Proc. Natl. Acad. Sci. U.S.A., 96, 5802-5807 (1999)); CB1 and CB2 binding assays in rat cerebellar membranes and CB2-overexpressing Chinese hamster ovary cells (Receptor Biology-Perkin Elmer, Wellesley, Mass.), respectively, using [^3H]WIN-55212-2 (NEN-Dupont, Boston, Mass., 40-60 Ci/mmol) as a ligand (Devane, W. A. et al. Science, 258, 1946-1949 (1992)); cholinesterase assays with a commercial kit (Sigma, St. Louis, Mo.), using purified enzymes (electric eel acetylcholinesterase type V-S and horse serum cholinesterase; both from Sigma, St. Louis, Mo.) and following manufacturer's instructions.

[4] = biological target: T2, electric eel acetylcholinesterase
Source text: as §1

anandamide transport = experiment: [3H]anandamide transport assay in human astrocytoma cells
Source text: as §1

CB2 receptor = CB2 receptor (Homo sapiens, UniProt P34972); experiment: CB2 binding assay in CB2-overexpressing Chinese hamster ovary cells, [3H]WIN-55212-2
Chain of CB2 receptor (P34972 whole entry): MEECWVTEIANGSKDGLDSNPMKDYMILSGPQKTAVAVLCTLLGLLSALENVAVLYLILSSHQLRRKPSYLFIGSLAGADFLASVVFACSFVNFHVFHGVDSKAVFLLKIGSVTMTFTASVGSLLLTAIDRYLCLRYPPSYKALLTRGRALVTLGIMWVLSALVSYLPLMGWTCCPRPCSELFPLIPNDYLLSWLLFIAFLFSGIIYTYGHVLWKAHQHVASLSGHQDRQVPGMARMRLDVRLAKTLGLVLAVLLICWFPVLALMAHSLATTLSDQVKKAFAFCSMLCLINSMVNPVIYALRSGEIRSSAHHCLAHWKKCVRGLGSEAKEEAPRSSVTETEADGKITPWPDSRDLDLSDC
Source text: as §1

rat cortical neurons = experiment: Transport, accumulation and release of non-metabolized [3H]anandamide in cortical neurons; format: cell-based
FAAH [5] = biological target: T1, FAAH; experiment: biochemical; format: biochemical; parameters: from tissue; host or cells: rat brain (membrane fraction of homogenate; Wistar rats)
[6] = Food intake in free-feeding rats; format: in vivo, rat; conditions: UCM532 10 mg kg-1 i.p.; UCM597 0.3 mg kg-1 i.p.; data not shown
Experimental: We recorded food intake in free-feeding rats by using an automated system (Scipro Inc., New York). Rats were acclimated to the test cages for three days prior to the tests. Each test began at the onset of the dark phase and lasted for 24 hours.

[7] = Isolation-induced ultrasonic vocalization emission in rat pups; format: in vivo; conditions: 5 mg kg-1
[8] = biological target: horse plasma butyryl cholinesterase (Equus caballus, UniProt P81908); experiment: Cholinesterase assay with commercial kit, purified enzyme
Chain of horse plasma butyryl cholinesterase (P81908 whole entry): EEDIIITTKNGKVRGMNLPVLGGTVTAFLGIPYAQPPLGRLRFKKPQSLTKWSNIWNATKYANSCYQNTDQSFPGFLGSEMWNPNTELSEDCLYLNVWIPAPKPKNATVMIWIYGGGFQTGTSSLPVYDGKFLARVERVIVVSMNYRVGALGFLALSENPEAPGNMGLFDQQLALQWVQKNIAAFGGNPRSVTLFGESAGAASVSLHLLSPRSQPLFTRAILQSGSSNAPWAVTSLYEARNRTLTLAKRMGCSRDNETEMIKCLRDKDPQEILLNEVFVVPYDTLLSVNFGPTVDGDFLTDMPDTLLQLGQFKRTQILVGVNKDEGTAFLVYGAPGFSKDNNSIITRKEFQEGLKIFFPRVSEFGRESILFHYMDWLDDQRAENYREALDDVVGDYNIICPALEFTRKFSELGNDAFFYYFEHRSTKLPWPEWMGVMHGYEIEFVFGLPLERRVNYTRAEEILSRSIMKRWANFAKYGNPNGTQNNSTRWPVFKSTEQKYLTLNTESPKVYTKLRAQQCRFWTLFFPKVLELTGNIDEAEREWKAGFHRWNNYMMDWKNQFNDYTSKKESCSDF
Source text: as §1

In the case of `CCCCNC(=O)Oc1ccc(OCc2ccccc2)cc1` [UCM532, n-Butylcarbamic acid 4-benzyloxyphenyl ester], the “catalepsy (rigid immobility)” value (Catalepsy) is reported as “no catalepsy”, the IC50 (FAAH [1]) is reported as 214 ± 79 nM and the “antinociceptive effect, formalin test, compared with UCM597” value (Mouse formalin test) is reported as “mimicked, albeit less effectively”. For the same compound, the “interaction with panel of 21 receptors, ion channels and transporters” value [2] was “did not significantly interact”, the IC50 [3] was > 30 µM and the “effect on acetylcholinesterase activity (in words)” value [4] was “did not affect”. For the same compound, the “AChE: maximal concentration of FAAH inhibitor tested” value ([4]; Table 2) was >100 µM, the “AT: maximal concentration of FAAH inhibitor tested” value (anandamide transport; Table 2) was >300 µM and the “effect on anandamide transport (in words)” value (anandamide transport; human astrocytoma cells) was “no effect”. The “effect on binding of a high-affinity ligand to CB2 (in words)” value (CB2 receptor) was “no effect”, the “CB2: maximal concentration of FAAH inhibitor tested” value (CB2 receptor; Table 2) was >300 µM and the “CB2 SI (maximal concentration tested/IC50 for FAAH)” value (CB2 receptor; Table 2) was “≧1000”. The “accumulation of non-metabolized [3H]anandamide in neurons” value (rat cortical neurons; 4-min incubation, UCM532 3 μM, UCM597 10 nM, AM404 10 μM) was “promote accumulation”, the “carrier-mediated uptake of [3H]anandamide” value (rat cortical neurons; rat cortical neurons) was “without reducing” and the IC50 (FAAH [5]; Table 3, read-out: Amidohydrolase IC50) was 400 nM. The IC50 (FAAH [5]; Table 4, FAAH IC50, read-out: Inhibition of Amidohydrolase IC50) was 300 nM, the “mode of FAAH inhibition (kinetic analyses and dialysis experiments)” value (FAAH [5]; data not shown) was “irreversible interaction” and the IC50 (FAAH [5]; rat brain membranes, read-out: IC50) was 396 ± 63 nM. The “hyperphagia (increased food intake)” value [6] was “no”, the isolation-induced ultrasonic calls [7] was “strongly reduced” and the “effect on butyryl cholinesterase activity (in words)” value [8] was “did not affect”. The “BCh SI (maximal concentration tested/IC50 for FAAH)” value ([8]; Table 2) was “≧333” and the “BCh: maximal concentration of FAAH inhibitor tested” value ([8]; Table 2) was >100 µM.
